1 compound from patent publication US9968582B2, “Use of a benzoate containing composition in urea cycle disorders and neurodegenerative disorders” (Rush University Medical Center, priority 2014, dated 2018) can be followed below.

This test deals with female PLP-TCR transgenic (Tg) mice. Nature of the test: Relapsing EAE in PLP-TCR transgenic mice, clinical symptoms. Format: in vivo. Conditions: FIG. 1B.

`O=C(OCC(COC(=O)c1ccccc1)OC(=O)c1ccccc1)c1ccccc1` [GTB, glyceryl tribenzoate]: where the note is “GTB from 8 dpi”, the “dose of maximum inhibition of EAE” value was 50 mg/kg body wt/d. In addition, for the setting “different doses of GTB from 8 dpi, 10 μg/mouse PLP139-151”, the “clinical symptoms (mean clinical score)” value is listed as “inhibitory effect of GTB on the clinical symptoms was clearly observed”.
